Laboratory results: publication PMC10108821, “Three tyrosine kinase inhibitors cause cardiotoxicity by inducing endoplasmic reticulum stress and inflammation in cardiomyocytes” (BMC Medicine, 2023)

Experiments:
H9C2 cell line = assay: qRT-PCR of inflammatory genes in H9C2 cells; type: cell-based, rat; settings: ISRIB 200 nM or salubrinal 20 μM with 3 TKIs, 24-hr
Method: (§1) RNA was isolated based on a standard protocol using TRIzol reagent (Vazyme). TRIzol (1ml per 1 well of a 6-well plate) was used to lyse cells and chloroform was added for RNA separation. Samples were shaked vigorously by hand for 15 seconds and incubated at room temperature for 2-3 minutes. RNA was present in the aqueous phase after centrifuge at 12000 x g for 15 minutes. Isopropyl alcohol was mixed to precipitate RNA from the aqueous phase. RNA precipitations were washed with 75% ethanol once and re-dissolved in RNase-free water. 1 μg total RNA was used for cDNA synthesis using a reverse transcription kit (Bioman). We then measured expression of genes of interest with SYBRR Green qPCR Mix (Bioman) using Applied Biosystems 7500 Quantitative PCR Instrument. Gene expression was normalized to the 18S ribosomal RNA expression and primers were listed in Primers Table.
H9C2 cells were a gift from Dr. Rong Qi in Peking University Health Science Center (they were originally purchased from the Cell Bank/Stem cell bank, Chinese Academy of Science). […] Media was changed to DMEM (Gibco) containing 2% FBS 12 hours before treatment. All treatments were performed under DMEM containing 2% FBS.

NRCMs [1] = assay: qRT-PCR of fetal, pro-inflammatory and ER stress genes with pathway-selective inhibitors; type: cell-based, rat; settings: 24 h
Method: Rats were euthanized by decapitation and thoracic cavity was opened with scissors and hearts were popped out of the opening gently with fingers. Hearts were clipped and put in HBSS immediately; 20–40 hearts were collected into one sterile vial containing a magnetic stir bar and 1 mL digestive media made of 0.1% trypsin (Macklin) and 0.05% collagenase (Gibco) in HBSS. Hearts were minced until they were uniform in size. Digestive media was added to 10 mL for 40 hearts and stirred gently for 6 min. Supernatant was discarded and the digestion was repeated once; 10 mL digestive media was added and stirred gently for 10 min. The supernatant with cells were collected and the digestion and collection were repeated 4 times. Cells were centrifuged at 1200 rpm for 5 min, resuspended in media (Dulbecco’s modified Eagleʼs medium (Gibco)) with 10% fetal bovine serum (FBS; VISTECH), 1% penicillin–streptomycin, and 1% 0.1 M 5-bromo-2-deoxyuridine solution (Shanghai Yuanye) and filtered through a 40-μm cell strainer. Cells were seeded on a 100-mm plastic dish and cultured in a 5% CO2 incubator at 37 °C for 2 h to allow non-myocytes to adhere to the plate. The dish was swirled and media gently pipetted up and down to detach lightly attached cardiomyocytes. The collected myocytes were seeded in the same media described before; 48 h after plating, medium was exchanged to fresh DMEM (Gibco) with or without 2% FBS. All drug treatments were performed after this media change.
as §1

NRCMs [2] = settings: ISRIB 200 nM or 4μ8c 10 μM with 10 µM sorafenib, 24-hr
Method: After treatment, cells were stained with 5 μg/mL Propidium iodide (Sigma-Aldrich) mixed with Hoechst33342 (Solarbio) in Phenol red-free DMEM (Procell) in a 5% CO2 incubator at 37°C for 30 minutes. Images of PI staining were acquired through the filter Ex/Em=555/624nm and of the nuclei staining through the filter Ex/Em=405/452 using ImageXpress Micro Confocal-AWES (Molecular Devices).

SMILES | expression of inflammatory genes induced by TKIs (H9C2 cell line) | expression of Txnip, Il1b, Tnf, Nfkb1 and Il6 induced by TKIs (NRCMs [1]; ISRIB 200 nM co-treatment) | expression of cardiac fetal genes induced by TKIs (NRCMs [1]; ISRIB 200 nM co-treatment) | effect on Atf4, Ddit3, Xbp1s and Dnajb9 expression induced by TKIs (NRCMs [1]; ISRIB 200 nM or 4μ8c 10 μM with TKIs) | rescue from cell death induced by sorafenib (NRCMs [2])
O=C(COc1ccc(Cl)cc1)NC1CCC(NC(=O)COc2ccc(Cl)cc2)CC1 (stereo not drawn) [ISRIB] | blocked upregulation of inflammatory genes (Nfkb1, Il6. and Tnf) by TKIs | inhibited the expression of Txnip, Il1b, and Tnf to similar degrees as 4μ8c, but did not hamper the expression of Nfkb1 and Il6 as potently as 4μ8c in combination with ponatinib | inhibited the expression of cardiac fetal genes to a similar level as 4μ8c | inhibited Atf4 and Ddit3 significantly without affecting the XBP1s axis too much | had no such effect
O=C(/C=C/c1ccccc1)NC(NC(=S)Nc1cccc2cccnc12)C(Cl)(Cl)Cl (stereo not drawn) [salubrinal] | increased the expression level of some pro-inflammatory genes, such as Nfkb1, Il6, and Tnf, but not Il1b |  |  |  | 
